Consider 23 molecules from patent US12486240B2, “Oxadiazole compounds for controlling or preventing phytopathogenic fungi” (PI INDUSTRIES LTD., priority 2019, dated 2025).

A value given as a limit tells only on which side of the number the result lay.

In the assay the test system is Phakopsora pachyrhizi. Nature of the assay: Phakopsora pachyrhizi test on soybean (preventive spray). The class given is in vivo. Conditions: preventive spray on soybean plants, inoculated one day after treatment, rated 3, 7, 10 and 15 days after application, read-out: Efficacy (% control) from disease severity rating versus untreated control. As for the experimental part:
Example 5: Phakopsora pachyrhizi Test on Soybean Compounds were dissolved in 2% dimethyl sulfoxide/acetone and then mixed with water containing an emulsifier to a calibrated spray volume of 50 mL. This 50 mL spray solution was poured into spray bottles for further applications. To test the preventive activity of compounds, healthy young Soybean plants raised in the greenhouse were sprayed with the active compound preparation at the stated application rates inside the spray cabinets using hollow cone nozzles. One day after treatment, the plants were inoculated with a spore suspension containing 2×10^5 Phakopsora pachyrhizi conidia. The inoculated plants were then kept in a greenhouse chamber at 22-24° C. temperature and 80-90% relative humidity for disease expression. A visual assessment of the compound's performance was carried out by rating the disease severity (0-100% scale) on treated plants 3, 7, 10 and 15 days after application. Efficacy (% control) of the compounds was calculated by comparing the disease rating in the treatment with the one of the untreated control. The sprayed plants were also assessed for plant compatibility by recording symptoms like necrosis, chlorosis and stunting.
`COc1c(NCc2ccc(-c3noc(C(F)(F)F)n3)cc2)c(=O)c1=O` [Compound 18, 3-methoxy-4-((4-(5-(trifluoromethyl)-1,2,4-oxadiazol-3-yl)benzyl)amino)cyclobut-3-ene-1,2-dione]: the pest or weed control at 500 ppm was no less than 70%.

As to `C=CCNc1c(NCc2ccc(-c3noc(C(F)(F)F)n3)cc2)c(=O)c1=O` [Compound 20, 3-(allylamino)-4-((4-(5-(trifluoromethyl)-1,2,4-oxadiazol-3-yl)benzyl)amino)cyclobut-3-ene-1,2-dione], the pest or weed control at 500 ppm was no less than 70%.

As to `CN(Cc1ccc(-c2noc(C(F)(F)F)n2)cc1)c1c(N2CC3(COC3)C2)c(=O)c1=O` [Compound 49, 3-(methyl(4-(5-(trifluoromethyl)-1,2,4-oxadiazol-3-yl)benzyl)amino)-4-(2-oxa-6-azaspiro[3.3]heptan-6-yl)cyclobut-3-ene-1,2-dione], the pest or weed control at 500 ppm was no less than 70%.

Consider `N#CC1CCN(c2c(Nc3ccc(-c4noc(C(F)(F)F)n4)cc3)c(=O)c2=O)C1` (centres unmarked) [Compound 15, 1-(3,4-dioxo-2-((4-(5-(trifluoromethyl)-1,2,4-oxadiazol-3-yl)phenyl)amino)cyclobut-1-en-1-yl)pyrrolidine-3-carbonitrile], for which the pest or weed control at 500 ppm is no less than 70%.

Regarding `CN1CCN(c2c(Nc3ccc(-c4noc(C(F)(F)F)n4)cc3)c(=O)c2=O)CC1` [Compound 16, 3-(4-methylpiperazin-1-yl)-4-((4-(5-(trifluoromethyl)-1,2,4-oxadiazol-3-yl)phenyl)amino)cyclobut-3-ene-1,2-dione], the pest or weed control at 500 ppm is no less than 70%.

For `O=C1CN(c2c(Nc3ccc(-c4noc(C(F)(F)F)n4)cc3)c(=O)c2=O)CCN1` [Compound 13, 3-(3-oxopiperazin-1-yl)-4-((4-(5-(trifluoromethyl)-1,2,4-oxadiazol-3-yl)phenyl)amino)cyclobut-3-ene-1,2-dione], the pest or weed control at 500 ppm was no less than 70%.

For the molecule `O=c1c(NCc2ccc(-c3noc(C(F)(F)F)n3)cc2)c(N2CCSCC2)c1=O` [Compound 31, 3-thiomorpholino-4-((4-(5-(trifluoromethyl)-1,2,4-oxadiazol-3-yl)benzyl)amino)cyclobut-3-ene-1,2-dione], the pest or weed control at 500 ppm was no less than 70%.

Regarding `CCCN(C)c1c(Nc2ccc(-c3noc(C(F)(F)F)n3)cc2)c(=O)c1=O` [Compound 11, 3-(methyl(propyl)amino)-4-((4-(5-(trifluoromethyl)-1,2,4-oxadiazol-3-yl)phenyl)amino)cyclobut-3-ene-1,2-dione], the pest or weed control at 500 ppm is no less than 70%.

On to `CC(C)Nc1c(N(C)Cc2ccc(-c3noc(C(F)(F)F)n3)cc2)c(=O)c1=O` [Compound 51, 3-(isopropylamino)-4-(methyl(4-(5-(trifluoromethyl)-1,2,4-oxadiazol-3-yl)benzyl)amino)cyclobut-3-ene-1,2-dione], for which the pest or weed control at 500 ppm was no less than 70%.

Turning to `CN(Cc1ccc(-c2noc(C(F)(F)F)n2)cc1)c1c(N2CCOCC2)c(=O)c1=O` [Compound 42, 3-(methyl(4-(5-(trifluoromethyl)-1,2,4-oxadiazol-3-yl)benzyl)amino)-4-morpholinocyclobut-3-ene-1,2-dione], the pest or weed control at 500 ppm is no less than 70%.

On to `CN(Cc1cc(F)cc(F)c1)c1c(Nc2ccc(-c3noc(C(F)(F)F)n3)cc2)c(=O)c1=O` [Compound 10, 3((3,5-difluorobenzyl)(methyl)amino)-4-((4-(5-(trifluoromethyl)-1,2,4-oxadiazol-3-yl)phenyl)amino)cyclobut-3-ene-1,2-dione], for which the pest or weed control at 500 ppm was no less than 70%.

Turning to `COC1CCN(c2c(Nc3ccc(-c4noc(C(F)(F)F)n4)cc3)c(=O)c2=O)C1` (centres unmarked) [Compound 5, 3-(3-methoxypyrrolidin-1-yl)-4-((4-(5-(trifluoromethyl)-1,2,4-oxadiazol-3-yl)phenyl)amino)cyclobut-3-ene-1,2-dione], the pest or weed control at 500 ppm was no less than 70%.

As for `CN(Cc1ccc(-c2noc(C(F)(F)F)n2)cc1)c1c(N2CCC(F)(F)C2)c(=O)c1=O` [Compound 50, 3-(3,3-difluoropyrrolidin-1-yl)-4-(methyl(4-(5-(trifluoromethyl)-1,2,4-oxadiazol-3-yl)benzyl)amino)cyclobut-3-ene-1,2-dione], the pest or weed control at 500 ppm was no less than 70%.

For `CN(C)c1c(Nc2ccc(-c3noc(C(F)(F)F)n3)cc2)c(=O)c1=O` [Compound 12, 3-(dimethylamino)-4-((4-(5-(trifluoromethyl)-1,2,4-oxadiazol-3-yl)phenyl)amino)cyclobut-3-ene-1,2-dione], the pest or weed control at 500 ppm was no less than 70%.

`CC(C)OC1CN(c2c(N(C)Cc3ccc(-c4noc(C(F)(F)F)n4)cc3)c(=O)c2=O)C1` [Compound 48, 3-(3-isopropoxyazetidin-1-yl)-4-(methyl(4-(5-(trifluoromethyl)-1,2,4-oxadiazol-3-yl)benzyl)amino)cyclobut-3-ene-1,2-dione]: the pest or weed control at 500 ppm was no less than 70%.

`CN(Cc1ccc(-c2noc(C(F)(F)F)n2)cc1)c1c(N2CCC(F)C2)c(=O)c1=O` (centres unmarked) [Compound 55, 3-(3-fluoropyrrolidin-1-yl)-4-(methyl(4-(5-(trifluoromethyl)-1,2,4-oxadiazol-3-yl)benzyl)amino)cyclobut-3-ene-1,2-dione]: the pest or weed control at 500 ppm is no less than 70%.

On to `COc1c(N(C)Cc2ccc(-c3noc(C(F)(F)F)n3)cc2)c(=O)c1=O` [Compound 41, 3-methoxy-4-(methyl(4-(5-(trifluoromethyl)-1,2,4-oxadiazol-3-yl)benzyl)amino)cyclobut-3-ene-1,2-dione], for which the pest or weed control at 500 ppm was no less than 70%.

Take `C=CCNc1c(N(C)Cc2ccc(-c3noc(C(F)(F)F)n3)cc2)c(=O)c1=O` [Compound 56, 3-(allylamino)-4-(methyl(4-(5-(trifluoromethyl)-1,2,4-oxadiazol-3-yl)benzyl)amino)cyclobut-3-ene-1,2-dione]: the pest or weed control at 500 ppm was no less than 70%.

For the molecule `O=c1c(NCc2ccc(-c3noc(C(F)(F)F)n3)cc2)c(N2CCOCC2)c1=O` [Compound 17, 3-morpholino-4-((4-(5-(trifluoromethyl)-1,2,4-oxadiazol-3-yl)benzyl)amino)cyclobut-3-ene-1,2-dione], the pest or weed control at 500 ppm was no less than 70%.

For `O=c1c(Nc2ccc(-c3noc(C(F)(F)F)n3)cc2)c(N2CCC2)c1=O` [Compound 9, 3-(azetidin-1-yl)-4-((4-(5-(trifluoromethyl)-1,2,4-oxadiazol-3-yl)phenyl)amino)cyclobut-3-ene-1,2-dione], the pest or weed control at 500 ppm is no less than 70%.

In the case of `CCOC1CN(c2c(Nc3ccc(-c4noc(C(F)(F)F)n4)cc3)c(=O)c2=O)C1` [Compound 6, 3-(3-ethoxyazetidin-1-yl)-4-((4-(5-(trifluoromethyl)-1,2,4-oxadiazol-3-yl)phenyl)amino)cyclobut-3-ene-1,2-dione], the pest or weed control at 500 ppm was no less than 70%.

For the molecule `COCCNc1c(NCc2ccc(-c3noc(C(F)(F)F)n3)cc2)c(=O)c1=O` [Compound 19, 3-((2-methoxyethyl)amino)-4-((4-(5-(trifluoromethyl)-1,2,4-oxadiazol-3-yl)benzyl)amino)cyclobut-3-ene-1,2-dione], the pest or weed control at 500 ppm is no less than 70%.

Turning to `CN1CCN(c2c(N(C)Cc3ccc(-c4noc(C(F)(F)F)n4)cc3)c(=O)c2=O)CC1` [Compound 52, 3-(methyl(4-(5-(trifluoromethyl)-1,2,4-oxadiazol-3-yl)benzyl)amino)-4-(4-methylpiperazin-1-yl)cyclobut-3-ene-1,2-dione], the pest or weed control at 500 ppm was no less than 70%.
